Source: BindingDB's records for doi:10.1016/j.bmc.2009.10.032 (NIH, 2009)

Columns and labels:
[1] = biological target: E3 ubiquitin-protein ligase Mdm2 (Homo sapiens, UniProt Q00987); experiment: Fluorescence Anisotropy Competition Binding Assay
Method: (§1) Inhibitory activities of NAPAs were measured by fluorescence anisotropy competition experiments. Protein was incubated with fluorescein-labeled human p53 peptide in the presence of test compound. Experiments were performed with a 70-fold molar excess of protein over labeled p53-peptide to ensure that the peptide is completely bound by the protein. […] Fluorescence anisotropy was measured at 25 deg C on a Beacon 2000 (PanVera, Madison, WI). Data points were measured in triplicate. IC50 values were calculated by nonlinear regression curve fitting.

Protein Mdm4 = biological target: T1, Protein Mdm4 (Homo sapiens, UniProt O15151); experiment: Fluorescence Anisotropy Competition Binding Assay
T1 sequence (O15151 whole entry): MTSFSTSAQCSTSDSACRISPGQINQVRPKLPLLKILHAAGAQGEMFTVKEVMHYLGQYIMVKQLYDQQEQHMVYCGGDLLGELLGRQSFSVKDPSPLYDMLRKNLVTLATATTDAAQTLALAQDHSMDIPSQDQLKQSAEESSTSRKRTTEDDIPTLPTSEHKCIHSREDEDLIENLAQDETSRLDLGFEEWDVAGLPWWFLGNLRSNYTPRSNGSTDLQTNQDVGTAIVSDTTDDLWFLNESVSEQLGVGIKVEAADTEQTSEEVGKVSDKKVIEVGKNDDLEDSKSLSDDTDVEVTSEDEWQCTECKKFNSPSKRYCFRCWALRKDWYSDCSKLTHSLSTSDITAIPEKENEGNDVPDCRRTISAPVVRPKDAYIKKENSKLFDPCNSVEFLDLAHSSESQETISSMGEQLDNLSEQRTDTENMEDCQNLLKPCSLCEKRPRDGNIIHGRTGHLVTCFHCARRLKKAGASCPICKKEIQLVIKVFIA
Method: as §1

Chain of E3 ubiquitin-protein ligase Mdm2 (Q00987 whole entry): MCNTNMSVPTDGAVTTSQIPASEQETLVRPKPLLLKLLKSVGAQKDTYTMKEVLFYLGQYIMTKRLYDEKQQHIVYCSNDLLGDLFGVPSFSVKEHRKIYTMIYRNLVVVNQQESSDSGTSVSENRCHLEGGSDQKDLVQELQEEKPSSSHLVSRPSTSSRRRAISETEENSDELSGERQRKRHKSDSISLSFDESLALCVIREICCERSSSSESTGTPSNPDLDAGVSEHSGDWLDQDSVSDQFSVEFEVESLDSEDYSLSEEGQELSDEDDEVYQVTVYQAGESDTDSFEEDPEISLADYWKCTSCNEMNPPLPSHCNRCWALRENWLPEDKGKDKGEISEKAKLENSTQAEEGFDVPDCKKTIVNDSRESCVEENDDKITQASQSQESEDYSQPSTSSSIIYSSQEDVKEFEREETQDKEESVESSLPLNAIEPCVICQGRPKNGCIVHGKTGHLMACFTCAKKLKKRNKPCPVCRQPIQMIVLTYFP

SMILES | IC50 ([1]; pH 7.6, 23 °C) | IC50 (Protein Mdm4) | IC50 [1]
NCCCCC(CN(C(=O)NCCc1ccc(Br)cc1)C(CCC(=O)O)CN(CCC(N)=O)C(=O)NCCCc1ccc(Br)cc1)N(CC(CCC(=O)O)NC(=O)Nc1ccccc1)C(=O)NCCCC1CCCCC1 (centres undefined) [N-acylpolyamine (NAPA) scaffold, 19] | 10.5 µM | 7.6 µM | –
CC(C)CCC(=O)NC(CCC(=O)O)CN(CCCCCC1CCCCC1)C(CCCCN)CN(CCCCc1ccc(Br)cc1)C(CCC(=O)O)CN(CCCCCc1ccc(F)cc1)CCC(N)=O (centres undefined) [N-acylpolyamine (NAPA) scaffold, 36] | – | > 100 µM | > 100 µM
